Source: US20240325398A1, “COMBINATION THERAPIES” (Infinity Pharmaceuticals, Inc., priority 2014, published 2024)

How the values were obtained:
SUDHL6 = test: Compound 1 with dexamethasone, CellTiter-Glo viability 72 h, combination index; type: cell-based; details: SUDHL6
Method: The effects of Compound 1 with dexamethasone were examined in a panel of cell lines. Cells were cultured and assayed as follows. Compound 1 was serially diluted with cell culture medium and various DMSO concentrations. The top concentration of Compound 1 exposed to cells was 3 uM for cell lines other than WSU-NHL and DOHH2. For WSU-NHL and DOHH2 cell lines, the top concentration of Compound 1 exposed to the cells was 0.3 uM. Dexamethasone was serially diluted in culture media and phosphate buffered saline (PBS). The top concentration of dexamethasone used on cells was 3 uM. Cells were at least 73% viable and were counted and diluted for plating at a density of about 92,000 cell/mL, 130 uL cells per well in 96 well plates for SUDHL6, Karpas 422, SUDHL4, WSU-NHL, RL, and DOHH2 cell lines. The SUDHL10 cell line was plated at a density of about 46,000 cells/mL, 130 uL cells per well in 96 well plates.
Various concentrations of Compound 1 and various combinations of dexamethasone were added to various wells of cells. Single agents (Compound 1 or dexamethasone alone) were also added to some wells of cells. Cells were incubated with compounds for 72 hours. To assay for effects of the compounds on cell viability, a CellTiter-Glo® luminescent cell viability assay (commercially available) was used. To each plate of cells, 100 uL CellTiter-Glo reagent was added, incubated, and luminescence quantified using a […].
The result for cell line SUDHL6 is depicted in FIG. 12 and in Table 12. […] Table 12 depicts combination index (CI) values for different combinations of dexamethasone/Compound 1 concentrations.

DOHH-2 = test: Combination study, ATPLite 72 h, dose matrix (Synergy Score, CI50)
Method: (§1) Cells are thawed from a liquid nitrogen preserved state. Once cells have been expanded and divide at their expected doubling times, screening begins. Cells are seeded in growth media in either black 1536-well or 384-well tissue culture treated plates. Cells are then equilibrated in assay plates via centrifugation and placed in incubators attached to the Dosing Modules at 37° C. for 24 hours before treatment. […] These Tzero (To) plates are read using ultra-sensitive luminescence on Envision plate readers (Perkin Elmer). Treated assay plates are incubated with compound for 72 hours. After 72 hours, plates are developed for endpoint analysis using ATPLite. All data points are collected via automated processes, quality controlled and analyzed using Zalicus software.
The measure of effect in the experiment can be the inhibition of cellular response relative to the untreated level (vehicle alone). […] The inhibition ranges from 0% at the untreated level to 100% when T=0. Inhibition levels are negative for agents that actually increase levels.
(§2) Growth Inhibition (GI) is used as a measure of cell viability. […] A GI reading of 100% represents complete growth inhibition—T72 compound-treated and T0 vehicle signals are matched. […] A GI reading of 200% represents complete death of all cells in the culture well. Compounds reaching an activity plateau of GI 200% are considered cytotoxic. GI is calculated by applying the following test and equation:
(§3) Combination analysis data were collected in a 6×6 dose matrix. Synergy is calculated by comparing a combination's response to those of its single compound, against the drug-with-itself dose-additive reference model. Deviations from dose additivity may be assessed visually on an isobologram or numerically with a Combination Index (CI). […] Additive effect is CI=1.0. […] Antagonistic effect is CI>1.0.
(§4) To measure combination effects in excess of Loewe additivity, a scalar measure to characterize the strength of synergistic interaction termed the Synergy Score is devised. The Synergy Score is calculated as:
The fractional inhibition for each component agent and combination point in the matrix is calculated relative to the median of all vehicle-treated control wells. The Synergy Score equation integrates the experimentally-observed activity volume at each point in the matrix in excess of a model surface numerically derived from the activity of the component agents using the Loewe model for additivity. Additional terms in the Synergy Score equation (above) are used to normalize for various dilution factors used for individual agents and to allow for comparison of synergy scores across an entire experiment. The inclusion of positive inhibition gating or an Idata multiplier removes noise near the zero effect level, and biases results for synergistic interactions at that occur at high activity levels.
Loewe Volume (Loewe Vol) is used to assess the overall magnitude of the combination interaction in excess of the Loewe additivity model. Loewe Volume is particularly useful when distinguishing synergistic increases in a phenotypic activity (positive Loewe Volume) versus synergistic antagonisms (negative Loewe Volume). […] This model defines additivity as a non-synergistic combination interaction where the combination dose matrix surface should be indistinguishable from either drug crossed with itself. The calculation for Loewe additivity is:

Farage = test: as above; details: Farage
Method: as §1
where T is treated cell count and V is untreated (vehicle) cell count (at 72 hours). I ranges from 0% (when T=V) to 100% (when T=0). […] The measure of effect in the experiment can be the inhibition of cellular response relative to the untreated level (vehicle alone). […] The inhibition ranges from 0% at the untreated level to 100% when T=0. Inhibition levels are negative for agents that actually increase levels. Other effect measures, such as an activity ratio r=T/V may be more appropriate for some assays. When activity ratios (e.g, fold increase over stimulated control) are being used, the effect can be measured using an induction 1=ln(T/V). With this definition, all effect expressions are the same as for inhibition.
as §2, §3
The isobologram was drawn by identifying the locus of concentrations that correspond to crossing the indicated inhibition level. This is done by finding the crossing point for each single agent concentration in a dose matrix across the concentrations of the other single agent. Practically, each vertical concentration CY is held fixed while a bisection algorithm is used to identify the horizontal concentration CX in combination with that vertical dose that gives the chosen effect level in the response surface Z(CX,CY). These concentrations are then connected by linear interpolation to generate the isobologram display. For synergistic interactions, the isobologram contour fall below the additivity threshold and approaches the origin, and an antagonistic interaction would lie above the additivity threshold. The error bars represent the uncertainty arising from the individual data points used to generate the isobologram. The uncertainty for each crossing point is estimated from the response errors using bisection to find the concentrations where Z−αZ(CX,CY) and Z+σZ(CX,CY) cross Icut, where αZ is the standard deviation of the residual error on the effect scale.
as §4
The fractional inhibition for each component agent and combination point in the matrix is calculated relative to the median of all vehicle-treated control wells.

SU-DHL-10-epst = test: as above
KARPAS-422 = test: as above

C[C@H](Nc1ncnc2[nH]cnc12)c1cc2cccc(Cl)c2c(=O)n1-c1ccccc1 [Compound 1, (S)-3-(1-((9H-purin-6-yl)amino)ethyl)-8-chloro-2-phenylisoquinolin-1(2H)-one]
combination index (CI) (SUDHL6; Compound 1 111.1 nM + Dexamethasone 1.4 nM): E (E = >1) | combination index (CI) (SUDHL6; Compound 1 111.1 nM + Dexamethasone 4.1 nM): E (E = >1) | combination index (CI) (SUDHL6; Compound 1 111.1 nM + Dexamethasone 12.3 nM): E (E = >1) | combination index (CI) (SUDHL6; Compound 1 111.1 nM + Dexamethasone 37 nM): E (E = >1) | combination index (CI) (SUDHL6; Compound 1 111.1 nM + Dexamethasone 111.1 nM): A (A = 0.0001 to <0.3) | combination index (CI) (SUDHL6; Compound 1 111.1 nM + Dexamethasone 333.3 nM): A (A = 0.0001 to <0.3) | combination index (CI) (SUDHL6; Compound 1 111.1 nM + Dexamethasone 1000 nM): A (A = 0.0001 to <0.3) | combination index (CI) (SUDHL6; Compound 1 111.1 nM + Dexamethasone 3000 nM): A (A = 0.0001 to <0.3) | combination index (CI) (SUDHL6; Compound 1 333.3 nM + Dexamethasone 1.4 nM): E (E = >1) | combination index (CI) (SUDHL6; Compound 1 333.3 nM + Dexamethasone 4.1 nM): E (E = >1) | combination index (CI) (SUDHL6; Compound 1 333.3 nM + Dexamethasone 12.3 nM): E (E = >1) | combination index (CI) (SUDHL6; Compound 1 333.3 nM + Dexamethasone 37 nM): E (E = >1) | combination index (CI) (SUDHL6; Compound 1 333.3 nM + Dexamethasone 111.1 nM): A (A = 0.0001 to <0.3) | combination index (CI) (SUDHL6; Compound 1 333.3 nM + Dexamethasone 333.3 nM): A (A = 0.0001 to <0.3) | combination index (CI) (SUDHL6; Compound 1 333.3 nM + Dexamethasone 1000 nM): A (A = 0.0001 to <0.3) | combination index (CI) (SUDHL6; Compound 1 333.3 nM + Dexamethasone 3000 nM): A (A = 0.0001 to <0.3) | combination index (CI) (SUDHL6; Compound 1 1000 nM + Dexamethasone 1.4 nM): E (E = >1) | combination index (CI) (SUDHL6; Compound 1 1000 nM + Dexamethasone 4.1 nM): B (B = 0.3 to <0.5) | combination index (CI) (SUDHL6; Compound 1 1000 nM + Dexamethasone 12.3 nM): E (E = >1) | combination index (CI) (SUDHL6; Compound 1 1000 nM + Dexamethasone 37 nM): E (E = >1) | combination index (CI) (SUDHL6; Compound 1 1000 nM + Dexamethasone 111.1 nM): A (A = 0.0001 to <0.3) | combination index (CI) (SUDHL6; Compound 1 1000 nM + Dexamethasone 333.3 nM): A (A = 0.0001 to <0.3) | combination index (CI) (SUDHL6; Compound 1 1000 nM + Dexamethasone 1000 nM): A (A = 0.0001 to <0.3) | combination index (CI) (SUDHL6; Compound 1 1000 nM + Dexamethasone 3000 nM): A (A = 0.0001 to <0.3) | combination index (CI) (SUDHL6; Compound 1 3000 nM + Dexamethasone 1.4 nM): A (A = 0.0001 to <0.3) | combination index (CI) (SUDHL6; Compound 1 3000 nM + Dexamethasone 4.1 nM): A (A = 0.0001 to <0.3) | combination index (CI) (SUDHL6; Compound 1 3000 nM + Dexamethasone 12.3 nM): A (A = 0.0001 to <0.3) | combination index (CI) (SUDHL6; Compound 1 3000 nM + Dexamethasone 37 nM): A (A = 0.0001 to <0.3) | combination index (CI) (SUDHL6; Compound 1 3000 nM + Dexamethasone 111.1 nM): A (A = 0.0001 to <0.3) | combination index (CI) (SUDHL6; Compound 1 3000 nM + Dexamethasone 333.3 nM): A (A = 0.0001 to <0.3) | combination index (CI) (SUDHL6; Compound 1 3000 nM + Dexamethasone 1000 nM): A (A = 0.0001 to <0.3) | combination index (CI) (SUDHL6; Compound 1 3000 nM + Dexamethasone 3000 nM): A (A = 0.0001 to <0.3) | CI50 growth inhibition (DOHH-2; combination with Dexamethasone): S (S=0.01 to <0.5) | CI50 inhibition (DOHH-2; combination with Dexamethasone): S (S=0.01 to <0.5) | Synergy Score growth inhibition (DOHH-2; combination with Dexamethasone): A3 (A3=>3) | Synergy Score inhibition (DOHH-2; combination with Dexamethasone): A3 (A3=>3) | CI50 growth inhibition (DOHH-2; combination with LEE011): T (T=0.5 to <0.7) | CI50 inhibition (DOHH-2; combination with LEE011): U (U=0.7 to <1) | Synergy Score growth inhibition (DOHH-2; combination with LEE011): A3 (A3=>3) | Synergy Score inhibition (DOHH-2; combination with LEE011): A2 (A2=1 to <3) | CI50 growth inhibition (DOHH-2; combination with PCI-32765): S (S=0.01 to <0.5) | CI50 inhibition (DOHH-2; combination with PCI-32765): S (S=0.01 to <0.5) | Synergy Score growth inhibition (DOHH-2; combination with PCI-32765): A3 (A3=>3) | Synergy Score inhibition (DOHH-2; combination with PCI-32765): A3 (A3=>3) | CI50 growth inhibition (DOHH-2; combination with PD-0332991): U (U=0.7 to <1) | CI50 inhibition (DOHH-2; combination with PD-0332991): U (U=0.7 to <1) | Synergy Score growth inhibition (DOHH-2; combination with PD-0332991): A3 (A3=>3) | Synergy Score inhibition (DOHH-2; combination with PD-0332991): A2 (A2=1 to <3) | CI50 growth inhibition (Farage; combination with Dexamethasone): U (U=0.7 to <1) | CI50 inhibition (Farage; combination with Dexamethasone): S (S=0.01 to <0.5) | Synergy Score growth inhibition (Farage; combination with Dexamethasone): A3 (A3=>3) | Synergy Score inhibition (Farage; combination with Dexamethasone): A3 (A3=>3) | CI50 growth inhibition (Farage; combination with LEE011): W (W=≥1) | CI50 inhibition (Farage; combination with LEE011): W (W=≥1) | Synergy Score growth inhibition (Farage; combination with LEE011): A1 (A1=0.0001 to <1) | Synergy Score inhibition (Farage; combination with LEE011): A1 (A1=0.0001 to <1) | CI50 growth inhibition (Farage; combination with PCI-32765): S (S=0.01 to <0.5) | CI50 inhibition (Farage; combination with PCI-32765): S (S=0.01 to <0.5) | Synergy Score growth inhibition (Farage; combination with PCI-32765): A3 (A3=>3) | Synergy Score inhibition (Farage; combination with PCI-32765): A3 (A3=>3) | CI50 growth inhibition (Farage; combination with PD-0332991): T (T=0.5 to <0.7) | CI50 inhibition (Farage; combination with PD-0332991): S (S=0.01 to <0.5) | Synergy Score growth inhibition (Farage; combination with PD-0332991): A2 (A2=1 to <3) | Synergy Score inhibition (Farage; combination with PD-0332991): A2 (A2=1 to <3) | CI50 growth inhibition (SU-DHL-10-epst; combination with Dexamethasone): S (S=0.01 to <0.5) | CI50 inhibition (SU-DHL-10-epst; combination with Dexamethasone): S (S=0.01 to <0.5) | Synergy Score growth inhibition (SU-DHL-10-epst; combination with Dexamethasone): A3 (A3=>3) | Synergy Score inhibition (SU-DHL-10-epst; combination with Dexamethasone): A3 (A3=>3) | CI50 growth inhibition (SU-DHL-10-epst; combination with LEE011): S (S=0.01 to <0.5) | CI50 inhibition (SU-DHL-10-epst; combination with LEE011): S (S=0.01 to <0.5) | Synergy Score growth inhibition (SU-DHL-10-epst; combination with LEE011): A3 (A3=>3) | Synergy Score inhibition (SU-DHL-10-epst; combination with LEE011): A3 (A3=>3) | CI50 growth inhibition (SU-DHL-10-epst; combination with PCI-32765): S (S=0.01 to <0.5) | CI50 inhibition (SU-DHL-10-epst; combination with PCI-32765): S (S=0.01 to <0.5) | Synergy Score growth inhibition (SU-DHL-10-epst; combination with PCI-32765): A3 (A3=>3) | Synergy Score inhibition (SU-DHL-10-epst; combination with PCI-32765): A3 (A3=>3) | CI50 growth inhibition (SU-DHL-10-epst; combination with PD-0332991): S (S=0.01 to <0.5) | CI50 inhibition (SU-DHL-10-epst; combination with PD-0332991): S (S=0.01 to <0.5) | Synergy Score growth inhibition (SU-DHL-10-epst; combination with PD-0332991): A3 (A3=>3) | Synergy Score inhibition (SU-DHL-10-epst; combination with PD-0332991): A3 (A3=>3) | CI50 growth inhibition (KARPAS-422; combination with Dexamethasone): U (U=0.7 to <1) | CI50 inhibition (KARPAS-422; combination with Dexamethasone): T (T=0.5 to <0.7) | Synergy Score growth inhibition (KARPAS-422; combination with Dexamethasone): A3 (A3=>3) | Synergy Score inhibition (KARPAS-422; combination with Dexamethasone): A2 (A2=1 to <3) | CI50 growth inhibition (KARPAS-422; combination with LEE011): S (S=0.01 to <0.5) | CI50 inhibition (KARPAS-422; combination with LEE011): S (S=0.01 to <0.5) | Synergy Score growth inhibition (KARPAS-422; combination with LEE011): A2 (A2=1 to <3) | Synergy Score inhibition (KARPAS-422; combination with LEE011): A2 (A2=1 to <3) | CI50 growth inhibition (KARPAS-422; combination with PCI-32765): S (S=0.01 to <0.5) | CI50 inhibition (KARPAS-422; combination with PCI-32765): S (S=0.01 to <0.5) | Synergy Score growth inhibition (KARPAS-422; combination with PCI-32765): A3 (A3=>3) | Synergy Score inhibition (KARPAS-422; combination with PCI-32765): A2 (A2=1 to <3) | CI50 growth inhibition (KARPAS-422; combination with PD-0332991): S (S=0.01 to <0.5) | CI50 inhibition (KARPAS-422; combination with PD-0332991): S (S=0.01 to <0.5) | Synergy Score growth inhibition (KARPAS-422; combination with PD-0332991): A2 (A2=1 to <3) | Synergy Score inhibition (KARPAS-422; combination with PD-0332991): A2 (A2=1 to <3)
